Data taken from patent publication US8163732B2, “Tricyclic heteroaryl compounds useful as inhibitors of Janus kinase” (Vertex Pharmaceuticals Incorporated, priority 2005, dated 2012).

Key:
JAK-3 = target: T1, JAK-3 (Homo sapiens, UniProt P52333); test: JAK-3 inhibition assay; format: biochemical
T1 sequence (P52333 1-1124): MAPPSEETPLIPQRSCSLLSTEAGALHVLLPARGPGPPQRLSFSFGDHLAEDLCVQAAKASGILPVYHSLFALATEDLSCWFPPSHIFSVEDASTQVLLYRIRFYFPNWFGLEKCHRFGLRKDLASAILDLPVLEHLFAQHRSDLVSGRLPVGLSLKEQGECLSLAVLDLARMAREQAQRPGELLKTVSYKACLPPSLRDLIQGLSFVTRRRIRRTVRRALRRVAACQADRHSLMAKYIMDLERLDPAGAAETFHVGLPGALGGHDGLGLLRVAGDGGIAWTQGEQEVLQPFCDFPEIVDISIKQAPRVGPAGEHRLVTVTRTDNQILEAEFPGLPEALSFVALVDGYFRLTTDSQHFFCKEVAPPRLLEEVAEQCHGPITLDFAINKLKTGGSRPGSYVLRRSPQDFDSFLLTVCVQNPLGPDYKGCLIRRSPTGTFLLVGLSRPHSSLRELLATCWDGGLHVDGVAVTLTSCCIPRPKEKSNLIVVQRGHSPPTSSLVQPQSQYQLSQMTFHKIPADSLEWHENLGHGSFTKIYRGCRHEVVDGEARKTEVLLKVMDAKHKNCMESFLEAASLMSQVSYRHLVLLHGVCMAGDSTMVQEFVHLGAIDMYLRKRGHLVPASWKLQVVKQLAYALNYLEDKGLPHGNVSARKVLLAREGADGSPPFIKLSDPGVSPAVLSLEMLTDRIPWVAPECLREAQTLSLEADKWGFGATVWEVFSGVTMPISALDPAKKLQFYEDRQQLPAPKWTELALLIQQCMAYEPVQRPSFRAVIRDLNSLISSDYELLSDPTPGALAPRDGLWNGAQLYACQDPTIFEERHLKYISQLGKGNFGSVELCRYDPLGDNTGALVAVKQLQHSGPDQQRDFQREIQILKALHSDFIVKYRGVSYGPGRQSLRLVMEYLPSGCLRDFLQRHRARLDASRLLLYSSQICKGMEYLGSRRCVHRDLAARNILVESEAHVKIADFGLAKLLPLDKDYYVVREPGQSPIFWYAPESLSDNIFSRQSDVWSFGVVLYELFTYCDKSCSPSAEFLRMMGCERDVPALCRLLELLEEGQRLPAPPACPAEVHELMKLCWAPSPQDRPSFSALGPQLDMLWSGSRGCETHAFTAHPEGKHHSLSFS
Procedure: Compounds were screened for their ability to inhibit JAK using the assay shown below. Reactions were carried out in a kinase buffer containing 100 mM HEPES (pH 7.4), 1 mM DTT, 10 mM MgCl2, 25 mM NaCl, and 0.01% BSA.
Substrate concentrations in the assay were 5 μM ATP (200 μCi/μmole ATP) and 1 μM poly(Glu)4Tyr. Reactions were carried out at 25° C. and 1 nM JAK-3.
To each well of a 96 well polycarbonate plate was added 1.5 μL of a candidate JAK-3 inhibitor along with 50 μL of kinase buffer containing 2 μM poly(Glu)4Tyr and 10 μM ATP. This was then mixed and 50 μL of kinase buffer containing 2 nM JAK-3 enzyme was added to start the reaction. After 20 minutes at room temperature (25° C.), the reaction was stopped with 50 μL of 20% trichloroacetic acid (TCA) that also contained 0.4 mM ATP. The entire contents of each well were then transferred to a 96 well glass fiber filter plate using a TomTek Cell Harvester. After washing, 60 μL of scintillation fluid was added and ^33P incorporation detected on a Perkin Elmer TopCount. After removing the mean background values for all of the data points, the data were fit using Prism software to obtain a Ki value (app).

JAK-2 = JAK-2 (Homo sapiens, UniProt O60674); test: JAK-2 inhibition assay; format: biochemical
Sequence of JAK-2 (O60674 whole entry): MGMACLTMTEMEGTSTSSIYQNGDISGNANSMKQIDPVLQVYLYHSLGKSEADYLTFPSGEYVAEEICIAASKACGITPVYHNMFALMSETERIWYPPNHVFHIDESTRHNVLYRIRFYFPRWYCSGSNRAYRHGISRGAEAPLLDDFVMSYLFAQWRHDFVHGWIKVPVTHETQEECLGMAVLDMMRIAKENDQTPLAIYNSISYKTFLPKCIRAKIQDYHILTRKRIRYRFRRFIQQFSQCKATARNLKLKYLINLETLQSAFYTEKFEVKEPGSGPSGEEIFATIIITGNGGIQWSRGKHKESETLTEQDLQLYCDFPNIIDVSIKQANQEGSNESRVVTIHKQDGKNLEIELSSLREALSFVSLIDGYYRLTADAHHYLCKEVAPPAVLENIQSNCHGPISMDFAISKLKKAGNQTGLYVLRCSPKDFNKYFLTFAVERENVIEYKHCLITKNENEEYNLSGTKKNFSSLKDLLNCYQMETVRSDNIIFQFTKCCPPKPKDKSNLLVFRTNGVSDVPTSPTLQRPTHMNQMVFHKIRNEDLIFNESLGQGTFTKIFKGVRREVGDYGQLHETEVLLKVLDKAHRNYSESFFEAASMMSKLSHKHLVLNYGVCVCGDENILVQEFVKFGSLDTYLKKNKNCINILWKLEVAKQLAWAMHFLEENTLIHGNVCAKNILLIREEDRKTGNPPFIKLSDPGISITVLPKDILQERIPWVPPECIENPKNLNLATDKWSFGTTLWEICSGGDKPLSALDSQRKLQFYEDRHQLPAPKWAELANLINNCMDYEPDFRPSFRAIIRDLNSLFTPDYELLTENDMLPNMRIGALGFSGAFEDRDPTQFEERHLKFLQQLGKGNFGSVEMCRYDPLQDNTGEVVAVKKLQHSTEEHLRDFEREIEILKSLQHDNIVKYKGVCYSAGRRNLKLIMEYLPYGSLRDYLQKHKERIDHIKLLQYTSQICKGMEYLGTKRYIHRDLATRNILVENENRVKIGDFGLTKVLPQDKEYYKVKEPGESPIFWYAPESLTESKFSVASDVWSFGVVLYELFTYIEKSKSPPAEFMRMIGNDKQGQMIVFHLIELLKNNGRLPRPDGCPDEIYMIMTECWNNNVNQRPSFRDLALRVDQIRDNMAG

Compound | Ki (JAK-3) | Ki (JAK-2)
c1ccc(COCC2Nc3ccccc3-c3ccnc4[nH]cc2c34)cc1 (centres unmarked) [Compound 1] | 250 to 2500 nM | –
c1ccc(COCC2Nc3ccccc3-c3ncnc4[nH]cc2c34)cc1 (centres unmarked) [Compound 2] | > 2500 nM | > 2500 nM
c1ccc(C2Nc3ccccc3-c3ncnc4[nH]cc2c34)cc1 (centres unmarked) [Compound 3] | 250 to 2500 nM | > 2500 nM
FC(F)(F)C1Nc2ccccc2-c2ncnc3[nH]cc1c23 (centres unmarked) [Compound 4] | > 2500 nM | > 2500 nM
c1ccc(C2Nc3ccccc3-c3ccnc4[nH]cc2c34)cc1 (centres unmarked) [Compound 5] | 250 to 2500 nM | –
CC(C)(C)C1Nc2ccccc2-c2ccnc3[nH]cc1c23 (centres unmarked) [Compound 6] | 250 to 2500 nM | –
Fc1ccccc1C1Nc2ccccc2-c2ccnc3[nH]cc1c23 (centres unmarked) [Compound 7] | 250 to 2500 nM | < 250 nM
CCOC(=O)C1Nc2ccccc2-c2ccnc3[nH]cc1c23 (centres unmarked) [Compound 8] | 250 to 2500 nM | 250 to 2500 nM
COc1ccccc1C1Nc2ccccc2-c2ccnc3[nH]cc1c23 (centres unmarked) [Compound 9] | 250 to 2500 nM | 250 to 2500 nM
c1ccc2c(c1)NC(C1CCCCC1)c1c[nH]c3nccc-2c13 (centres unmarked) [Compound 10] | > 2500 nM | –
Fc1cccc(C2Nc3ccccc3-c3ccnc4[nH]cc2c34)c1 (centres unmarked) [Compound 11] | 250 to 2500 nM | < 250 nM
Fc1ccc(C2Nc3ccccc3-c3ccnc4[nH]cc2c34)cc1 (centres unmarked) [Compound 12] | 250 to 2500 nM | 250 to 2500 nM
c1ccc2c(c1)NCc1c[nH]c3nccc-2c13 [Compound 13] | 250 to 2500 nM | 250 to 2500 nM
CCC1Nc2ccccc2-c2ccnc3[nH]cc1c23 (centres unmarked) [Compound 14] | 250 to 2500 nM | –
CC(C)CC1Nc2ccccc2-c2ccnc3[nH]cc1c23 (centres unmarked) [Compound 15] | > 2500 nM | –
CC(C)C1Nc2ccccc2-c2ccnc3[nH]cc1c23 (centres unmarked) [Compound 16] | > 2500 nM | –
Clc1ccccc1C1Nc2ccccc2-c2ccnc3[nH]cc1c23 (centres unmarked) [Compound 17] | 250 to 2500 nM | 250 to 2500 nM
Fc1cccc(F)c1C1Nc2ccccc2-c2ccnc3[nH]cc1c23 (centres unmarked) [Compound 18] | 250 to 2500 nM | < 250 nM
FC(F)(F)c1ccccc1C1Nc2ccccc2-c2ccnc3[nH]cc1c23 (centres unmarked) [Compound 19] | 250 to 2500 nM | 250 to 2500 nM
Oc1ccccc1C1Nc2ccccc2-c2ccnc3[nH]cc1c23 (centres unmarked) [Compound 20] | 250 to 2500 nM | 250 to 2500 nM
Brc1ccccc1C1Nc2ccccc2-c2ccnc3[nH]cc1c23 (centres unmarked) [Compound 21] | 250 to 2500 nM | 250 to 2500 nM

Compound | Ki (JAK-3) | Ki (JAK-2)
c1ccc2c(c1)NC(c1ccc3c(c1)OCO3)c1c[nH]c3nccc-2c13 (centres unmarked) [Compound 22] | 250 to 2500 nM | < 250 nM
O=C(O)C1Nc2ccccc2-c2ccnc3[nH]cc1c23 (centres unmarked) [Compound 23] | 250 to 2500 nM | 250 to 2500 nM
c1ccc(CC2Nc3ccccc3-c3ccnc4[nH]cc2c34)cc1 (centres unmarked) [Compound 24] | 250 to 2500 nM | –
Fc1cccc(C2Nc3ccccc3-c3ccnc4[nH]cc2c34)c1F (centres unmarked) [Compound 25] | 250 to 2500 nM | < 250 nM
Fc1ccc(C2Nc3ccccc3-c3ccnc4[nH]cc2c34)c(F)c1 (centres unmarked) [Compound 26] | 250 to 2500 nM | < 250 nM
Fc1ccc(F)c(C2Nc3ccccc3-c3ccnc4[nH]cc2c34)c1 (centres unmarked) [Compound 27] | ≤ 250 nM | < 250 nM
Fc1cc(F)cc(C2Nc3ccccc3-c3ccnc4[nH]cc2c34)c1 (centres unmarked) [Compound 28] | 250 to 2500 nM | 250 to 2500 nM
Fc1ccc(C2Nc3ccccc3-c3ccnc4[nH]cc2c34)c(F)c1F (centres unmarked) [Compound 29] | 250 to 2500 nM | –
Fc1ccc(F)c(C2Nc3ccccc3-c3ccnc4[nH]cc2c34)c1F (centres unmarked) [Compound 30] | ≤ 250 nM | < 250 nM
Fc1cc(F)c(C2Nc3ccccc3-c3ccnc4[nH]cc2c34)cc1F (centres unmarked) [Compound 31] | 250 to 2500 nM | < 250 nM
Fc1ccc(C2Nc3ccccc3-c3ccnc4[nH]cc2c34)c(Cl)c1 (centres unmarked) [Compound 32] | > 2500 nM | 250 to 2500 nM
Fc1cccc(Cl)c1C1Nc2ccccc2-c2ccnc3[nH]cc1c23 (centres unmarked) [Compound 33] | 250 to 2500 nM | 250 to 2500 nM
Fc1cccc(C(F)(F)F)c1C1Nc2ccccc2-c2ccnc3[nH]cc1c23 (centres unmarked) [Compound 34] | 250 to 2500 nM | 250 to 2500 nM
O=[N+]([O-])c1ccccc1C1Nc2ccccc2-c2ccnc3[nH]cc1c23 (centres unmarked) [Compound 35] | 250 to 2500 nM | 250 to 2500 nM
Fc1ncccc1C1Nc2ccccc2-c2ccnc3[nH]cc1c23 (centres unmarked) [Compound 36] | 250 to 2500 nM | 250 to 2500 nM
c1ccc(C2Nc3ccccc3-c3ccnc4[nH]cc2c34)nc1 (centres unmarked) [Compound 37] | > 2500 nM | > 2500 nM
c1cncc(C2Nc3ccccc3-c3ccnc4[nH]cc2c34)c1 (centres unmarked) [Compound 38] | 250 to 2500 nM | 250 to 2500 nM
Fc1cc(C2Nc3ccccc3-c3ccnc4[nH]cc2c34)ccc1Cl (centres unmarked) [Compound 39] | 250 to 2500 nM | < 250 nM
Clc1cccc(C2Nc3ccccc3-c3ccnc4[nH]cc2c34)c1 (centres unmarked) [Compound 40] | 250 to 2500 nM | 250 to 2500 nM
Clc1cccc(C2Nc3ccccc3-c3ccnc4[nH]cc2c34)c1Cl (centres unmarked) [Compound 41] | > 2500 nM | 250 to 2500 nM
Clc1cccc(Cl)c1C1Nc2ccccc2-c2ccnc3[nH]cc1c23 (centres unmarked) [Compound 42] | 250 to 2500 nM | 250 to 2500 nM

Compound | Ki (JAK-3) | Ki (JAK-2)
c1ccc2c(c1)NC(c1ccncc1)c1c[nH]c3nccc-2c13 (centres unmarked) [Compound 43] | > 2500 nM | 250 to 2500 nM
c1ccc2c(c1)N=C(c1ccncc1)c1c[nH]c3nccc-2c13 [Compound 44] | 250 to 2500 nM | < 250 nM
COc1ccc(C2Nc3ccccc3-c3ccnc4[nH]cc2c34)cc1F (centres unmarked) [Compound 45] | 250 to 2500 nM | < 250 nM
Oc1ccc(C2Nc3ccccc3-c3ccnc4[nH]cc2c34)c(Cl)c1 (centres unmarked) [Compound 46] | ≤ 250 nM | < 250 nM
OCCCCC1Nc2ccccc2-c2ccnc3[nH]cc1c23 (centres unmarked) [Compound 59] | > 2500 nM | –
Oc1ccc(C2Nc3ccccc3-c3ccnc4[nH]cc2c34)cc1 (centres unmarked) [Compound 65] | ≤ 250 nM | –
Oc1ccc(C2Nc3ccccc3-c3ccnc4[nH]cc2c34)cc1Br (centres unmarked) [Compound 77] | ≤ 250 nM | –
O=C(O)c1ccc(C2Nc3ccccc3-c3ccnc4[nH]cc2c34)cc1 (centres unmarked) [Compound 88] | > 2500 nM | –
CNC(=O)c1ccc(C2Nc3ccccc3-c3ccnc4[nH]cc2c34)cc1 (centres unmarked) [Compound 91] | > 2500 nM | –
COC(=O)C1(c2ccc([N+](=O)[O-])cc2)Nc2ccccc2-c2ccnc3[nH]cc1c23 (centres unmarked) [Compound 98] | 250 to 2500 nM | –
COC(=O)C1(c2ccc(O)cc2)Nc2ccccc2-c2ccnc3[nH]cc1c23 (centres unmarked) [Compound 103] | ≤ 250 nM | –
Oc1ccc(C2Nc3ccccc3-c3ccnc4[nH]cc2c34)cc1F (centres unmarked) [Compound 105] | ≤ 250 nM | –
Oc1ccc(C2Nc3ccccc3-c3ccnc4[nH]cc2c34)c(F)c1 (centres unmarked) [Compound 107] | ≤ 250 nM | –
Oc1ccc(C2Nc3ccccc3-c3ncnc4[nH]cc2c34)cc1F (centres unmarked) [Compound 116] | ≤ 250 nM | –
Oc1ccc(C2Nc3ccccc3-c3ncnc4[nH]cc2c34)c(F)c1 (centres unmarked) [Compound 118] | ≤ 250 nM | –
CS(=O)(=O)Nc1ccc(C2Nc3ccccc3-c3ccnc4[nH]cc2c34)cc1 (centres unmarked) [Compound 123] | > 2500 nM | –
O=C1Nc2ccccc2-c2ccnc3[nH]cc(c23)C1c1ccc(O)cc1 (centres unmarked) [Compound 125] | ≤ 250 nM | –
OCc1ccc(C2Nc3ccccc3-c3ccnc4[nH]cc2c34)cc1 (centres unmarked) [Compound 154] | ≤ 250 nM | –
COC(=O)CC1Nc2ccccc2-c2ccnc3[nH]cc1c23 (centres unmarked) [Compound 156] | 250 to 2500 nM | –
